Reference: the supplement of paper PMC8837787

system: Saccharomyces cerevisiae ABC16-Green Monster; details: 18 h; 30 °C; YPD
Protocol: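 Growth inhibition of the drug-sensitive S. cerevisiae ABC16-Green Monster strain (16 ABC transporters deleted) in YPD at 30 °C for 18 h. […] dilution series […] in biological replicates; IC50 from OD600 (18 h minus 0 h) fitted by variable-slope nonlinear regression in GraphPad Prism. Library compounds were first screened at 150 µM, and only those with at least 70% inhibition went to dose-response; the rest are marked inactive.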

SMILES | IC50 growth inhibition
O=C(O)[C@]1(Cc2cccc(Nc3nccs3)n2)CC[C@@H](Oc2cccc(Cl)c2F)CC1 [MK-5108] | > 75 µM
CC(C=CC(=O)NO)=CC(C)C(=O)c1ccc(N(C)C)cc1 (centres undefined) [Trichostatin A] | 50.6 µM
CC(C)CC(NC(=O)C(Cc1ccccc1)NC(=O)c1cnccn1)B(O)O (centres undefined) [Bortezomib] | 46.2 µM
N=C(N)Nc1ccc(-c2ccc(-c3ccc(NC(=N)N)cc3Cl)o2)c(Cl)c1 | 44.5 µM
O=C(Nc1nc(-c2ccccn2)cs1)c1ccccc1Br | 8.35 µM
CN(CC1COc2ccccc2O1)C(=O)Nc1nc2ccccc2s1 (centres undefined) | 48 µM
C=CCn1c(C)cc(C(=O)CSc2nc3ccccc3o2)c1C | 11.2 µM
CC1N(C)c2ccc(/C=C/c3cc[n+](C)cc3)cc2C1(C)C (centres undefined) | 55.2 µM
CCCCCN(C)CCC(O)(P(=O)([O-])O)P(=O)(O)O.[Na+] [Ibandronate] | > 75 µM
CC[C@@H]([C@H](C)O)n1ncn(-c2ccc(N3CCN(c4ccc(OC[C@@H]5CO[C@@](Cn6cncn6)(c6ccc(F)cc6F)C5)cc4)CC3)cc2)c1=O | 50 µM
O=CN(O)CCCP(=O)(O)O [Fosmidomycin] | > 75 µM
CC1CC(C)C(=O)C(C(O)CC2CC(=O)NC(=O)C2)C1 (centres undefined) [Cycloheximide] | 0.0378 µM
COc1ccccc1C(C)NCC(=O)Nc1cc(C(F)(F)F)ccc1Cl (centres undefined) | 32.4 µM
COc1ccc(C2Sc3ccccc3N=C3C2=C(O)c2ccccc23)cc1 (centres undefined) [GNF-Pf-5129] | 3.97 µM
OC(c1cc(C(F)(F)F)nc2c(C(F)(F)F)cccc12)C1CCCCN1 (centres undefined) [Mefloquine] | 29.9 µM
N=C(N)c1ccc(OCCCCCOc2ccc(C(=N)N)cc2)cc1 | 83.8 µM
COc1ccc(-c2onc(C(F)(F)F)c2-c2ccc(Cl)cc2)c(O)c1 | 48.6 µM
CC(=O)OCC1OC([S-])C(OC(C)=O)C(OC(C)=O)C1OC(C)=O.CCP(CC)CC (centres undefined) [Auranofin] | 27.4 µM
O=c1c2ccccc2[nH]c2ccc(I)cc12 [GNF-Pf-4577] | > 150 µM
NC(CC(=O)c1ccc(Cl)cc1Cl)C(Cl)(Cl)Cl (centres undefined) | 46.4 µM
CC1CCCC=CC2CC(O)CC2C(O)C=CC(=O)O1 (centres undefined) [Brefeldin A] | 31.9 µM
O=C([C@@H](c1ccc(Cl)cc1)c1cccnc1)N1CCN(c2ccc(C(F)(F)F)cc2)CC1 | 50 µM
Cc1nn(C(C)(C)C)c(C)c1/C=N/OC(=O)Nc1ccc(Cl)cc1 | 39.1 µM
COc1ccc(Nc2nc(NCc3ccccc3)c3ccccc3n2)cc1 | 7.72 µM
Cc1ccc(Nc2nc(N)nc(CN(C)Cc3nc(=O)c4ccccc4[nH]3)n2)cc1 | 32.3 µM
O=C(CC1NCCCC1O)Cn1cnc2ccccc2c1=O (centres undefined) [Febrifugine] | > 75 µM
Cc1cc(Cl)ccc1OCc1nnc(-c2ccccn2)[nH]1 | 20.7 µM

SMILES | IC50 growth inhibition
FC(F)Sc1ccc2nc3ccccc3c(N3CCOCC3)c2c1 | 30 µM
O=C(CCCCCCC(=O)Nc1ccccc1)NO [Vorinostat] | > 75 µM
CC(c1ncncc1F)C(O)(Cn1cncn1)c1ccc(F)cc1F (centres undefined) [Voriconazole] | 0.18 µM
NCCN(C(=O)c1ccc(Cl)cc1Cl)c1ccc(OCc2ccc(Cl)cc2)cc1 | 10.5 µM
OC(Cn1cncn1)(Cn1cncn1)c1ccc(F)cc1F [Fluconazole] | 3.14 µM
O=C(C1CCCCC1)N1CC(=O)N2CCc3ccccc3C2C1 (centres undefined) [Praziquantal] | > 75 µM
CN(C)c1oc(-c2ccc(Cl)cc2Cl)nc1[P+](c1ccccc1)(c1ccccc1)c1ccccc1 [GNF-Pf-2545] | 4.53 µM
COCCNc1cc(C(C)C)nc2c(-c3ccccc3)cnn12 | 52.6 µM
Cc1nc2ncnn2c(N2CCc3ccccc3C2)c1Cl | 84.8 µM
COc1ccc(-c2nnc3ccc(-c4cccc(C(C)C)c4)cn23)cc1OC | 52.3 µM
c1ccc(Oc2ccc(-c3cc(C4CCOCC4)[nH]n3)cc2)cc1 | 55.6 µM
CC(=O)N(C1=C(N2CCOCC2)C(=O)c2ccccc2C1=O)c1cccc(Cl)c1 [GNF-Pf-2288] | 41.7 µM
CN(Cc1nc(N)c2c3c(sc2n1)CCCC3)Cc1cccs1 | 107 µM
CC(=O)NCC1CN(c2ccc(N3CCSCC3)c(F)c2)C(=O)O1 (centres undefined) [Sutezolid] | > 75 µM
O=C(C(Cc1c[nH]c2ccccc12)NS(=O)(=O)c1ccc(Cl)cc1)N1CCCCC1 (centres undefined) | 42.4 µM
CCCCCCC(O)(c1ccc(F)cc1)C(CN1CCOCC1)c1ccccc1 (centres undefined) | 17.3 µM
COC=C(C(=O)OC)c1ccccc1Oc1cc(Oc2ccccc2C#N)ncn1 [Azoxystrobin] | > 75 µM
Cc1cc(C(=O)NCCc2cccc(F)c2)c(C)n1C(C)C | 20.7 µM
CNS(=O)(=O)c1ccc(C(=O)Nc2ccc(Nc3ccccc3)cc2)o1 | 92.5 µM
O=C1NCN(c2ccccc2)C12CCN(CCCC(c1ccc(F)cc1)c1ccc(F)cc1)CC2 [Fluspirilene] | 23.3 µM
CC(=O)NCC1CN(c2ccc(-c3ccc(CNCc4cn[nH]n4)cc3)c(F)c2)C(=O)O1 (centres undefined) [Radezolid] | > 75 µM
C[C@H]1CC[C@H](n2c3cnccc3c3cnc(Nc4ccc5c(n4)CCN(C(=O)CO)C5)nc32)CC1 [AMG 925] | > 75 µM
CC1COC(Cn2cncn2)(c2ccc(Oc3ccc(Cl)cc3)cc2Cl)O1 (centres undefined) | 39 µM
Cc1c(C)n(CCCN(C)C)c2ncn3nc(COc4ccccc4)nc3c12 | 39.6 µM
OC1=C2C(=Nc3ccccc3SC2c2ccccc2)c2ccccc21 (centres undefined) [GNF-Pf-4583] | 2.54 µM
Cc1nc(-c2ccccn2)nc(N(C)CCc2ccccc2)c1Cl | 43.3 µM
CCS(=O)(=O)c1ncc(Cl)c(C(=O)Nc2ccc(C(=O)OC)cc2)n1 | 17.4 µM

SMILES | IC50 growth inhibition
CC(=O)OC1C(=O)C2(C)C(O)CC3OCC3(OC(C)=O)C2C(OC(=O)c2ccccc2)C2(O)CC(OC(=O)C(O)C(NC(=O)c3ccccc3)c3ccccc3)C(C)=C1C2(C)C (centres undefined) [Paclitaxel] | > 75 µM
C=CCn1c(C)cc(C(=O)CSc2nc3ccccc3[nH]2)c1C | 4.24 µM
COCC1OC(=O)c2coc3c2C1(C)C1=C(C3=O)C2CCC(=O)C2(C)CC1OC(C)=O (centres undefined) [Wortmannin] | 27.7 µM
COC1OC2OC3(C)CCC4C(C)CCC(C1C)C24OO3 (centres undefined) [Artemether] | 70.6 µM
COC1C=COC2(C)Oc3c(C)c(O)c4c(c3C2=O)C(=O)C(=CNN2CCN(C)CC2)C(=C4O)NC(=O)C(C)=CC=CC(C)C(O)C(C)C(O)C(C)C(OC(C)=O)C1C (centres undefined) [Rifampicin] | > 75 µM
Cc1cccc2sc(C(=O)NCc3cccc(NS(N)(=O)=O)c3)c(Cl)c12 | 70.6 µM
CC(=O)OC1c2nc(cs2)C(=O)OC(CCCC(C)(Cl)Cl)C(C)C(=O)OC(C(C)(C)O)c2nc(cs2)C(=O)OC1(C)C (centres undefined) [Hectochlorin] | 0.25 µM
COc1ccc(C2CC(=O)C3=C(C2)NC(C)=C(C(=O)OC2CCCC2)C3c2ccc([N+](=O)[O-])cc2)cc1OC (centres undefined) [GNF-Pf-5639] | 9.8 µM
O=C(c1cccs1)N1CCN(c2ccc([N+](=O)[O-])c(NC3CC3)c2)CC1 [GNF-Pf-3455] | > 150 µM
Cc1ccc(-n2nc(C(C)(C)C)cc2NC(=O)NCc2cc(F)ccc2Oc2ccc3c(cnn3CCO)c2)cc1 [Pexmetinib] | > 75 µM
CC(C)(C)n1nc(Cc2cccc3ccccc23)c2c(N)ncnc21 | 27.6 µM
CCS(=O)(=O)N1CCN(c2ccc(Nc3ncc(C(N)=O)c(NC4CC4)n3)cc2)CC1 [Cerdulatinib] | 8.06 µM
Cc1cc(C(=O)ONC(=N)c2ccccc2)nn1C(C)(C)C | 63.5 µM
CCCc1cc(N2CCN(C)CC2)n2ncc(-c3ccccc3)c2n1 | 47 µM
c1ccc(-c2nc(NC3CCCCC3)cc(C3CC3)n2)nc1 | 44.5 µM
CN1CCN(CCCN2c3ccccc3Sc3ccc(Cl)cc32)CC1 [Prochlorperazine] | 28.6 µM
CC[P](CC)(CC)=[Au][S][C@H]1O[C@@H](COC(C)=O)[C@H](OC(C)=O)[C@@H](OC(C)=O)[C@@H]1OC(C)=O | 28.2 µM
CCC(=C(c1ccccc1)c1ccc(OCCN(C)C)cc1)c1ccccc1 [Tamoxifen] | 3.13 µM
CC(C)Sc1cccc(C(=O)Nc2nnc(-c3ccnn3C(C)C)o2)c1 [CBR113] | 2.48 µM
O=C(Nc1ccc(N2CCNCC2)cc1)c1ccn2ncc(-c3cccc(Cl)c3)c2n1 | 8 µM
FC(F)c1nc2ccccc2n1-c1nc(N2CCOCC2)nc(N2CCOCC2)n1 [ZSTK-474] | 52 µM
C/C=C/[C@H]1O[C@@](O)([C@@H](C)[C@H](O)[C@H](C)[C@H]2OC(=O)/C(OC)=C\C(C)=C\[C@@H](C)[C@@H](O)[C@@H](CC)[C@@H](O)[C@H](C)C/C(C)=C/C=C/[C@@H]2OC)C[C@@H](O[C@H]2C[C@@H](O)[C@H](OC(=N)O)[C@@H](C)O2)[C@@H]1C [Concanamycin A] | 6.1 µM
Nc1[nH]c(=O)ncc1F [Flucytosine] | 15.1 µM
O=C(NC1CC1)c1ccc(N2CCOc3ccc(Cl)cc32)s1 | 32.6 µM
Cn1ncc2c(N3CCOCC3)nc(NCCc3c[nH]c4ccccc34)nc21 | 69.3 µM
